This is an account of results in publication PMC11243598, “Inhibition of Monoamine Oxidases by Pyridazinobenzylpiperidine Derivatives” (Molecules, 2024).

What is called Ki is the dissociation constant of the complex between target and ligand, obtained from inhibition or displacement. A low value points to tighter binding. For orientation: IC50 means the concentration that inhibits the measured activity by half.

Data set [1] has as its target T1, MAO-B (Homo sapiens, UniProt P27338).
T1 sequence (P27338 1-520): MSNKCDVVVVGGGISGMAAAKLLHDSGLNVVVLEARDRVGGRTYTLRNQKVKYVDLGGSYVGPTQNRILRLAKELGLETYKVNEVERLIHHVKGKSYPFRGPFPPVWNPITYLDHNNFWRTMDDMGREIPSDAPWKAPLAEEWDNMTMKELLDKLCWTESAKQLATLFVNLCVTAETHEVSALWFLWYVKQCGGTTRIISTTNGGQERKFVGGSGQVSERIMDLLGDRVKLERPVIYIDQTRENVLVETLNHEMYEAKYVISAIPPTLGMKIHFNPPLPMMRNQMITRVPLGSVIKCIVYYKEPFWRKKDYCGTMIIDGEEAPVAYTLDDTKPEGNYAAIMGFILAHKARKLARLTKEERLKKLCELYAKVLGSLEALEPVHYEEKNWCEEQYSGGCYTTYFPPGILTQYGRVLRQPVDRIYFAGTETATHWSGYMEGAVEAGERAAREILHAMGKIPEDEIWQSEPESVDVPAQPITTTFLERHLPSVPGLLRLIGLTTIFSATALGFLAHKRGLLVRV
Briefly: MAO-B inhibition kinetics (Lineweaver-Burk and secondary plots). The data set is classed as biochemical. Set-up: purchased Sigma-Aldrich. The note with it: for Type of MAO-B inhibition: LB plots, five substrate and three inhibitor concentrations; for Ki: secondary plot of LB slopes, benzylamine substrate.

The nature of data set [2]: PAMPA for blood-brain barrier permeation. The note with it: for Experimental Pe / Papp: PAMPA-BBB, pH 7.4; for Papp: read-out: Experimental Pe. The data set is classed as in vitro ADME. On the technique in general: In PAMPA a lipid-coated filter parts donor from acceptor wells.
The target in data set [3] is T1, MAO-B. Kind of data set: Reversibility of MAO-B inhibition by dialysis. Details: purchased Sigma-Aldrich. The class given is biochemical. The note with it: for Reversibility of MAO-B inhibition: dialysis, compared with safinamide and pargyline.
Data set [4] has as its target T2, hMAO-A (Homo sapiens, UniProt P21397).
T2 sequence (P21397 1-527): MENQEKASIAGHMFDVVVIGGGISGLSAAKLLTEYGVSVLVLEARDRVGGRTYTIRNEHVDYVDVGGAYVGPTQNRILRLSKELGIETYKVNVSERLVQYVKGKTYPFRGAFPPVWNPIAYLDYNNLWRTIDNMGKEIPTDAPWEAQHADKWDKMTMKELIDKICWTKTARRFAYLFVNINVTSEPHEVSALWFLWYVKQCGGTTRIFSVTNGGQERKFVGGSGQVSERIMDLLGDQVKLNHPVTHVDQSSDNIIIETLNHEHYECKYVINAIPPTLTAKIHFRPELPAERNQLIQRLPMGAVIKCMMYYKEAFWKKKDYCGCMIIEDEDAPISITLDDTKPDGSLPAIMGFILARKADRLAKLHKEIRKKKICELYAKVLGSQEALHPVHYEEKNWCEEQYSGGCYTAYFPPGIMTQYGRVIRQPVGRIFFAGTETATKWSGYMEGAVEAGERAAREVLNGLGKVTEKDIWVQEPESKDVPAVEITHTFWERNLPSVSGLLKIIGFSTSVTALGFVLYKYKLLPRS
Kind of data set: Inhibition of recombinant hMAO-A, kynuramine substrate, continuous absorbance method. The note with it: for remaining activity at 10 µM: read-out: Residual Activity at 10 µM (%) MAO-A.

Data set [5] has as its target T1, MAO-B. Kind of data set: biochemical. The note with it: for remaining activity at 10 µM: read-out: Residual Activity at 10 µM (%) MAO-B.
The target in data set [6] is T1, MAO-B. The note with it: ratio of IC50 values within the S series.
In data set [7] the test system is MAO-B. The note with it: cited from earlier work.

`O=C(Cn1nc(N2CCC(Cc3ccccc3)CC2)ccc1=O)NN=Cc1cccc(Cl)c1` [Compound S5, N′-3-chlorobenzylidene-2-(3-(4-benzylpiperidin-1-yl)-6-oxopyridazin-1(6H)-yl)acetohydrazide]: in data set [1], the “Type of MAO-B inhibition” value is recorded as “competitive” and the Ki was found to be 155 ± 50 nM. In data set [2], the “Experimental Pe” value is 5.75 ×10⁻⁶ cm/s and the Papp stood at 5.75 ± 0.13 ×10⁻⁶ cm/s. In addition, the “Prediction (BBB permeation class)” value in data set [2] (class from Pe) was “CNS+ (Pe (10^−6 cm·s^−1) > 4.00: CNS+ (high permeation))”. Further, the “Reversibility of MAO-B inhibition” value in data set [3] was “reversible”. In data set [4], the IC50 stood at 3860 ± 770 nM and the remaining activity at 10 µM turned out to be 25.6 ± 3.85%. In data set [5], half-maximal inhibition (IC50) required 203 ± 4 nM and the remaining activity at 10 µM is -24.6 ± 8.51%. In data set [6], the “Times higher MAO-B inhibition than other derivatives” value was 4.82–53.94 times.

Turning to `N#Cc1ccccc1C=NNC(=O)Cn1nc(N2CCC(Cc3ccccc3)CC2)ccc1=O` [Compound S16, N′-2-cyanobenzylidene-2-(3-(4-benzylpiperidin-1-yl)-6-oxopyridazin-1(6H)-yl)acetohydrazide], in data set [1], the “Type of MAO-B inhibition” value is “competitive” and the Ki is 721 ± 74 nM. In data set [2], the “Experimental Pe” value stood at 3.78 ×10⁻⁶ cm/s and the Papp is 3.78 ± 0.2 ×10⁻⁶ cm/s. Further, in data set [3], the “Reversibility of MAO-B inhibition” value is listed as “reversible”. Also, in data set [4], the IC50 is 6150 ± 305 nM and the remaining activity at 10 µM was determined as 33.2 ± 9.25%. Moreover, in data set [5], the IC50 turned out to be 979 ± 206 nM and the remaining activity at 10 µM is -12.9 ± 1.14%.

On to `C[C@H](NCc1ccc(OCc2cccc(F)c2)cc1)C(N)=O` [Safinamide, reference compound], for which, in data set [3] (about 2.0 times IC50 (S5 0.4 μM, S16 2.0 μM), 30 min pre-incubation, read-out: Residual MAO-B activity before recovery, undialyzed (AU)), the activity was 28.3%. Further, the remaining activity at 10 µM in data set [4] was 69 ± 1.36%; in data set [5] it was -15.6 ± 0.86%.

In the case of `O=C(Cn1nc(N2CCOCC2)ccc1=O)NN=Cc1ccc(Cl)cc1` [TR16], the IC50 in data set [7] is 170 nM.
